From ChEMBL document CHEMBL1135952, “Successful bridging from a peptide to a non peptide antagonist at the human tachykinin NK-2 receptor” (Bioorg Med Chem Lett, 2002)

Assays:
Substance-K receptor [1] = biological target: T1, Substance-K receptor (Homo sapiens, UniProt P21452); experiment: Compound was tested for it's binding affinity against human Tachykinin receptor 2
T1 sequence (P21452 whole entry): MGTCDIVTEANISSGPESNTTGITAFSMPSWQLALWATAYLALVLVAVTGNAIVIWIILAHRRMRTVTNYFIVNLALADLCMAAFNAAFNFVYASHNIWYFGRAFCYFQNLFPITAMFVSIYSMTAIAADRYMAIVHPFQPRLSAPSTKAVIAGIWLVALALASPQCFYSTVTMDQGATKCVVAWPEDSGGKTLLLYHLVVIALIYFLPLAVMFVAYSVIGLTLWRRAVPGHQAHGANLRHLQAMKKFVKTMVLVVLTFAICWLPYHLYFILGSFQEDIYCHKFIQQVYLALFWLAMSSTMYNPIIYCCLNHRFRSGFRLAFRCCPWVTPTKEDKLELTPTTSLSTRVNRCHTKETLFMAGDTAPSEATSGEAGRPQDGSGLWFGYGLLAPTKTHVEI

Substance-K receptor [2] = biological target: T1, Substance-K receptor; experiment: Functional affinity was evaluated by measuring the intracellular calcium concentration in CHO cells transfected with the human Tachykinin receptor 2 using Fura-2; format: cell-based; details: read-out: pA2 (converted)

Ki (Substance-K receptor [1])	Kb (Substance-K receptor [2])	Compound
10 nM	10 nM	CN(CCc1c[nH]c2ccccc12)C(=O)c1ccccc1C(=O)N(CCCN1CCSCC1)CCc1c[nH]c2ccccc12
3.98 nM	3.98 nM	O=C(c1ccccc1C(=O)N(CCCN1CCSCC1)CCc1c[nH]c2ccccc12)N(CCCN1CCSCC1)CCc1c[nH]c2ccccc12
2 nM		CN(C)CCN(C)C(=O)c1nccnc1C(=O)N[C@@H]1CC(=O)N[C@@H](Cc2c[nH]c3ccccc23)C(=O)N[C@@H](Cc2ccccc2)C(=O)N[C@H](Cc2ccccc2)CNC1=O
31.6 nM		O=C(c1ccccc1C(=O)N(CCCN1CCOCC1)CCc1c[nH]c2ccccc12)N(CCCN1CCOCC1)CCc1c[nH]c2ccccc12
501 nM		O=C(NCCc1c[nH]c2ccccc12)c1nccnc1C(=O)N(CCCN1CCOCC1)CCc1c[nH]c2ccccc12
126 nM		O=C(c1nccnc1C(=O)N(CCCN1CCOCC1)CCc1c[nH]c2ccccc12)N(CCCN1CCOCC1)CCc1c[nH]c2ccccc12
